Source: ChEMBL document CHEMBL1201862, “PubChem BioAssay data set” (2004)
Calls of active or inactive are those of the source.

Key:
Fatty acid synthase [1] = target: T1, Fatty acid synthase (Homo sapiens, UniProt P49327); test: inhibition of human FAS-TE enzyme activity – biochemical, kinetic fluorescence intensity, dose response (AID 624326); format: functional;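 also: rate of fluorescence rise from hydrolysis of a fluorogenic O-methyl fluorescein ester substrate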
Streptokinase A = target: T2, Streptokinase A (Streptococcus pyogenes serotype M1, UniProt P10520); test: viability-normalized secreted streptokinase activity reduction – plasminogen activation absorbance, OD405, dose response (AID 1914); format: functional, Streptococcus pyogenes M1 GAS;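 also: secreted streptokinase activity via plasminogen activation per viability signal from cell pellet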
T2 sequence (P10520 whole entry): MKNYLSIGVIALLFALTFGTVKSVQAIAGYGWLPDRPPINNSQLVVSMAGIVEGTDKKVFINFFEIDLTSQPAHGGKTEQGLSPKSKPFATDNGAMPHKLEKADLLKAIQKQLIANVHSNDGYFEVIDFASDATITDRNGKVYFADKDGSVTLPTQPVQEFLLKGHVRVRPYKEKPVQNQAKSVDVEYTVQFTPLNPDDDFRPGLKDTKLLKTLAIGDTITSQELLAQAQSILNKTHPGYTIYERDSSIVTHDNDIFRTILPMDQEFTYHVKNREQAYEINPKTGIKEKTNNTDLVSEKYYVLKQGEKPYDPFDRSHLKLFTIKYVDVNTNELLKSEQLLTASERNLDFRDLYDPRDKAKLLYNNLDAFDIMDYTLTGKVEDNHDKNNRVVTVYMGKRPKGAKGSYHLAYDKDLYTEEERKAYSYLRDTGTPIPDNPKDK

[2] = non-specific 3'UTR reporter inhibition in Clone20-Shn3RL – cell-based, Renilla luciferase, cherry-picked, counter-screen for Shn3 inhibitor project, dose response (AID 624133); format: functional
Streptococcus = test: GAS UMAA2166 growth inhibition – luminescence, BacTiterGlo, counter-screen for streptokinase expression inhibitor project, dose response (AID 1915); format: functional, organism-based;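 also: potency for reduction of bacterial viability or growth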
Fatty acid synthase [3] = target: T1, Fatty acid synthase; test: inhibition of human FAS-TE enzyme activity – biochemical, endpoint fluorescence intensity, uHTS hits, dose response (AID 624327); format: functional;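 also: fluorescence from hydrolysis of an O-methyl fluorescein acyl ester substrate by the enzyme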
Paired box protein Pax-8 = Paired box protein Pax-8 (Homo sapiens, UniProt Q06710); test: PAX8 transcriptional activity inhibition in RMG-I – RMG-I cells, luciferase, cherry-pick, dose response (AID 687027); format: functional, cell-based;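 also: luciferase reporter driven by Pax8 target thyroperoxidase promoter measured by SteadyGlo luminescence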
[4] = reduction of Shn3 3'UTR-driven luciferase in osteoblasts – cell-based, Clone20 osteoblasts, firefly luciferase, cherry-picked, dose response (AID 624132); format: functional;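 also: firefly luciferase luminescence from reporter carrying the Shn3 3'UTR in osteoblasts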
[5] = loss of viability in HepG2 cells – cell-based, CellTiter-Glo, cherry-picked, cytotoxicity control for Shn3 inhibitor project, dose response (AID 624134); format: functional
[6] = general cell-killing toxicity readout – plate reader, dry powder samples, cytotoxicity control for PAX8 inhibitor project, dose response (AID 743021); format: functional, cell-based
[7] = system: Streptococcus sp. 'group A'; test: Streptococcus pyogenes SK(-)GAS viability under kanamycin – luminescence, BacTiterGlo, confirmation, counter-screen for streptokinase expression inhibitor project, dose response (AID 1900); format: functional, organism-based
[8] = target: T3, DNA repair protein RAD52 homolog (Homo sapiens, UniProt P43351); format: functional, biochemical
T3 sequence (P43351 whole entry): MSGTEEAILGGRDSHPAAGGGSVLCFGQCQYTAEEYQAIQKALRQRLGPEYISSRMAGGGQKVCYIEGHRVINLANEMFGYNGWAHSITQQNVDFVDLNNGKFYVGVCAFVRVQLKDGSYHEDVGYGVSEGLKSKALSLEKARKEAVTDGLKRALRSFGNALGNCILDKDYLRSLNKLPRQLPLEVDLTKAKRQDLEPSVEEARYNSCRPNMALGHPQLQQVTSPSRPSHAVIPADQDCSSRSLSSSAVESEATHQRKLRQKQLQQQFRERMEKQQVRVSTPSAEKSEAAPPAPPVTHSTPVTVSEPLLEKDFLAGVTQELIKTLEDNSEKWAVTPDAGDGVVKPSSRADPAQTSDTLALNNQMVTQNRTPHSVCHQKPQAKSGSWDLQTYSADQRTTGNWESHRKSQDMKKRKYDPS

[9] = target: SWI/SNF-related matrix-associated actin-dependent regulator of chromatin subfamily A member 2 (Homo sapiens, UniProt P51531); test: Luminescence-based cell-based high throughput dose response assay to identify activators of the function of SWI/SNF related, matrix associated, actin dependent regulator of chromatin, subfamily a, member 2 (SMARCA2, BRM).; format: functional
HEK293 [10] = test: cells; settings: Homo sapiens
[11] = target: T4, Mitochondrial peptide methionine sulfoxide reductase (Bos taurus, UniProt P54149); test: Absorbance-based biochemical high throughput dose response assay for activators of Methionine sulfoxide reductase A (MsrA).; format: functional
T4 sequence (P54149 whole entry): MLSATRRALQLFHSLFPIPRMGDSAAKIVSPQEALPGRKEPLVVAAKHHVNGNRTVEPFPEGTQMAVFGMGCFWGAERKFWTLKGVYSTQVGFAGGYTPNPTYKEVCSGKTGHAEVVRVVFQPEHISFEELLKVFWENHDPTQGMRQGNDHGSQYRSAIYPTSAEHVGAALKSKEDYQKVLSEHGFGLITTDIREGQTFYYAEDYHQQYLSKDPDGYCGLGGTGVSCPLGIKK

HEK293 [12] = test: cells; settings: Homo sapiens; remark: listed apart in the source
[13] = Counterscreen for activators of the function of SWI/SNF related, matrix associated, actin dependent regulator of chromatin, subfamily a, member 2 (SMARCA2, BRM): Luminescence-based cell-based high throughput dose response assay to identify non-selective compounds using the VP16 reporter assay.; format: functional
HeLa = test: viability loss in HeLa cells – cell-based, ATP luminescence, cherry-pick samples, cytotoxicity control, dose response (AID 687004); format: functional; settings: Homo sapiens
[14] = target: T5, ATP-dependent translocase ABCB1 (Homo sapiens, UniProt P08183); test: inhibition of BCRP-mediated JC-1 efflux – Ig-MXP3 cells, flow cytometry, set 2, dose response (AID 504566); format: functional; settings: read-out: EC50_MICROM_;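 also: flow cytometry median green fluorescence of retained JC-1 dye; potency of efflux pump inhibition measured as rising substrate retention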
[15] = target: T5, ATP-dependent translocase ABCB1; test: P-gp JC-1 efflux blockade concentration-response – Jurkat-DNR cells, flow cytometry, set 2, dose response (AID 504569); format: functional; settings: read-out: EC50_MICROM_;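 also: potency of pump inhibitors that raise cellular JC-1 green fluorescence up to the nicardipine level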
H9c2 = test: cells; format: functional, cell-based; settings: Rattus norvegicus, H9c2, Myocardium;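 also: confirmatory concentration-response retest of ultra-high-throughput screening hits for modulation of myocardial damage; cell death induced by hydrogen peroxide oxidative stress; compound pretreatment for 60 min then peroxide exposure for 2 h; potency is for protecting the cells against peroxide damage rather than for killing them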
[16] = target: Tyrosine-protein phosphatase non-receptor type 11 (Homo sapiens, UniProt Q06124); test: PTPN11 enzyme inhibitors – biochemical, selectivity assay for STEP inhibitor project, dose response (AID 602367); format: functional; settings: read-out: IC50_Mean
[17] = target: Eukaryotic translation initiation factor 4E (Mus musculus, UniProt P63073); test: blockers of eIF4G binding by eIF4E – biochemical, TR-FRET, dose response (AID 855); format: functional;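 also: potency for disrupting eIF4E binding to eIF4GI seen as loss of FRET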
[18] = target: T6, Carboxy-terminal domain RNA polymerase II polypeptide A small phosphatase 1 (Homo sapiens, UniProt Q9GZU7); test: CTDSP1 inhibitors, concentration-response, biochemical, absorbance readout, ultra-high-throughput screen actives (AID 540297); format: functional
T6 sequence (Q9GZU7 whole entry): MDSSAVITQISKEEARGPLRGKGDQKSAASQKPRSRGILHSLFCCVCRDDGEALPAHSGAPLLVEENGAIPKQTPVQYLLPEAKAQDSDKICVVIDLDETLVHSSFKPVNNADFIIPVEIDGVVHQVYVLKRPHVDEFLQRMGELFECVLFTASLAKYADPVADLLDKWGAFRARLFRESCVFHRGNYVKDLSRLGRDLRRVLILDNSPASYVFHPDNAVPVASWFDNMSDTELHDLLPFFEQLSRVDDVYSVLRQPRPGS

[19] = target: T7, Tyrosine-protein phosphatase non-receptor type 22 (Homo sapiens, UniProt Q9Y2R2); test: lymphoid phosphatase LYP inhibitors – biochemical, selectivity assay for STEP inhibitor project, dose response (AID 624241); format: functional
T7 sequence (Q9Y2R2 whole entry): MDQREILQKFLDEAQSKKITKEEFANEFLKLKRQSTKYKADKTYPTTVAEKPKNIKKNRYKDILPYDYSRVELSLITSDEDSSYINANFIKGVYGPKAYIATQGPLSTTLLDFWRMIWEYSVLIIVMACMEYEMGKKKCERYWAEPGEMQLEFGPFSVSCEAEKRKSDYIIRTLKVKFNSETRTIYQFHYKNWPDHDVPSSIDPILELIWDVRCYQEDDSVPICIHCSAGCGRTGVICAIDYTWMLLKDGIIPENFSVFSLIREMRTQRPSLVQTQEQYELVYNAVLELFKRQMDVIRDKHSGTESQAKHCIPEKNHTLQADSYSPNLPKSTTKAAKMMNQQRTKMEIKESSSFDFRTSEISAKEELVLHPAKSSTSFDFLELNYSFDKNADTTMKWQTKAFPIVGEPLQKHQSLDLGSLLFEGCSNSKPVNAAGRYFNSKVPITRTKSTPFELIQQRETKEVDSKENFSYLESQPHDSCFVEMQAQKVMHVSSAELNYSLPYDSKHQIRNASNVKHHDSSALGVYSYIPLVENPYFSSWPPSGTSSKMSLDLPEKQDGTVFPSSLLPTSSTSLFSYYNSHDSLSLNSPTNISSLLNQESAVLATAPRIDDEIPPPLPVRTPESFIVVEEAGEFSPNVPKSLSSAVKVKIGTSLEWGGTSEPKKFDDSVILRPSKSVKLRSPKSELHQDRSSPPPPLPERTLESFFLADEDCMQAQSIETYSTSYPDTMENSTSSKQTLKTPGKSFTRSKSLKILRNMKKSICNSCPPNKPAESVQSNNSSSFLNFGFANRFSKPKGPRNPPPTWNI

[20] = target: Dual specificity protein phosphatase 3 (Homo sapiens, UniProt P51452); test: VHR phosphatase inhibition, dose response, selectivity assay for STEP inhibitor project, biochemical (AID 602374); format: functional; settings: read-out: IC50_Mean
[21] = target: Tyrosine-protein phosphatase non-receptor type 5 (Homo sapiens, UniProt P54829); test: PTPN5 enzyme inhibition – biochemical, fluorescence intensity, uHTS hits, confirmation (AID 602372); format: functional; settings: read-out: IC50_Mean
[22] = blockade of melanocortin 4 receptor signaling – cell-based, plate reader, cherry pick, counter-screen for LGR2 antagonist project, dose response (AID 743444); format: functional;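 also: transfected HEK 293 cells stimulated with alpha-MSH peptide; potency of inhibitors of the alpha-MSH evoked signal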
[23] = inhibition of bursicon-driven LGR2 cAMP signaling – cell-based, HEK293, CRE-luciferase reporter, cherry pick, dose response (AID 743342); format: functional
[24] = A549 cell cytotoxicity, dose response, cytotoxicity control, plate reader, cherry-pick, antagonist series (AID 743412); format: functional, cell-based

T1 sequence (P49327 whole entry): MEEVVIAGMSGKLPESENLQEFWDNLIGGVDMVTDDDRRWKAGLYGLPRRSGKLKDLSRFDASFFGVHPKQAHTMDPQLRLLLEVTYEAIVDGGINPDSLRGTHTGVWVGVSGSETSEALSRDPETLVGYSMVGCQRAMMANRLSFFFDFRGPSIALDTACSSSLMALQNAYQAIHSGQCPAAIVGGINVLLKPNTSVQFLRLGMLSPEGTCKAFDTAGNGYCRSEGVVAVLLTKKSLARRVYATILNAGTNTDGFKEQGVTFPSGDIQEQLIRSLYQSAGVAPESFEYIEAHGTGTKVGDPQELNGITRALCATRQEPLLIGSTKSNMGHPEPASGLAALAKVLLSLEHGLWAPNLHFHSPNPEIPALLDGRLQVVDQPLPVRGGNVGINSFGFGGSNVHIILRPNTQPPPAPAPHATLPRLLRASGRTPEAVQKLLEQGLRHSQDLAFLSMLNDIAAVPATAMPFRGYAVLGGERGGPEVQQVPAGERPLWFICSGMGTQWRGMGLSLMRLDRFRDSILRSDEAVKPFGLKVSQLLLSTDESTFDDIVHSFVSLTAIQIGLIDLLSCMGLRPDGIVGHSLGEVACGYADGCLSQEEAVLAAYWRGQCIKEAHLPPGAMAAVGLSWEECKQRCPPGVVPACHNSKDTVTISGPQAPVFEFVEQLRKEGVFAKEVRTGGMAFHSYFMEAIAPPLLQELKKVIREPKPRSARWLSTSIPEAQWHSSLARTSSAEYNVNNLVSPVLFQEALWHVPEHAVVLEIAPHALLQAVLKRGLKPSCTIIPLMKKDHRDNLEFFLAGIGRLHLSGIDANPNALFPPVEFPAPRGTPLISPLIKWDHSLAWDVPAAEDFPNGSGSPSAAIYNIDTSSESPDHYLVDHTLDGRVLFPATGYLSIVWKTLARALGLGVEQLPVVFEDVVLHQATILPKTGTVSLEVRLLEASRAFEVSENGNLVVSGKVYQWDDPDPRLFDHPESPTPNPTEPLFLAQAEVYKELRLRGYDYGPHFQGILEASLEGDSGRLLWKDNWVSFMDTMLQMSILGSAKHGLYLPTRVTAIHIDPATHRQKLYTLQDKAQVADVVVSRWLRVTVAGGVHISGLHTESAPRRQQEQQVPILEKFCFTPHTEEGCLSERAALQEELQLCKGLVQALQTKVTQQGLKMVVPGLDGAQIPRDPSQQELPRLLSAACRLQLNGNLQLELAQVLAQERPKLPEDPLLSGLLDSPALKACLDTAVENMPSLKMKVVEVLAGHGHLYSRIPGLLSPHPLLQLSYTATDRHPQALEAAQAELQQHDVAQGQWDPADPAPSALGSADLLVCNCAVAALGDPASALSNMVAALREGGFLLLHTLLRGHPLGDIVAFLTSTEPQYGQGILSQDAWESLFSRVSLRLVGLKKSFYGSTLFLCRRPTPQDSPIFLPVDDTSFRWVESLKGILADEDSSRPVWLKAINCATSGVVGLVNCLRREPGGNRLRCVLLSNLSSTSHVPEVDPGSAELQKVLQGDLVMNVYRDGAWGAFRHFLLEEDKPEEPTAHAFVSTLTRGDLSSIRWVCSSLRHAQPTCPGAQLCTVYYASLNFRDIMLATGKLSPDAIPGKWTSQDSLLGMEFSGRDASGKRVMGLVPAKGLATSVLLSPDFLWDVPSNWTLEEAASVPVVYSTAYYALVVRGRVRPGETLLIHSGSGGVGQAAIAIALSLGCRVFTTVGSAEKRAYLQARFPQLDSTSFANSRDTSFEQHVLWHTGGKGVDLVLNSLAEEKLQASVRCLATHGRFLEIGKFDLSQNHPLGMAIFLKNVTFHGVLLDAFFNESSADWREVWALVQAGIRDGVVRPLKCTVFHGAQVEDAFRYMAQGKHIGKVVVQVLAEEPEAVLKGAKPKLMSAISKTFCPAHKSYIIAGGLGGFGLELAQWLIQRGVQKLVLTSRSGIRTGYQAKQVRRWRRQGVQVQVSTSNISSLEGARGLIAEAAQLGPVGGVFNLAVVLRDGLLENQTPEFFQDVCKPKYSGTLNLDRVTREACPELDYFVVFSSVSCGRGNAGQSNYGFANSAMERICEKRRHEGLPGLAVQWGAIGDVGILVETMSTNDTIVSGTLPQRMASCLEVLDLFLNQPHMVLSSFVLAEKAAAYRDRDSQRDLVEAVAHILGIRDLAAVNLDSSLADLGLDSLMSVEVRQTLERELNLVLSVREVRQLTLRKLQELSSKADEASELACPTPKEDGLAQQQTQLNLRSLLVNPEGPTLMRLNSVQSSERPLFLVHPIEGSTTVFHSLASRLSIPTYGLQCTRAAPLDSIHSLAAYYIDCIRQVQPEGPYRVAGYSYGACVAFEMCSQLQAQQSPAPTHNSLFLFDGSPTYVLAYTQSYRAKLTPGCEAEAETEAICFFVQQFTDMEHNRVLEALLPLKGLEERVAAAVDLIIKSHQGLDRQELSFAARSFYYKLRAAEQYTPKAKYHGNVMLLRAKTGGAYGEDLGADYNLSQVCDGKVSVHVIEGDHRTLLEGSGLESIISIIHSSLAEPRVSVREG
T5 sequence (P08183 whole entry): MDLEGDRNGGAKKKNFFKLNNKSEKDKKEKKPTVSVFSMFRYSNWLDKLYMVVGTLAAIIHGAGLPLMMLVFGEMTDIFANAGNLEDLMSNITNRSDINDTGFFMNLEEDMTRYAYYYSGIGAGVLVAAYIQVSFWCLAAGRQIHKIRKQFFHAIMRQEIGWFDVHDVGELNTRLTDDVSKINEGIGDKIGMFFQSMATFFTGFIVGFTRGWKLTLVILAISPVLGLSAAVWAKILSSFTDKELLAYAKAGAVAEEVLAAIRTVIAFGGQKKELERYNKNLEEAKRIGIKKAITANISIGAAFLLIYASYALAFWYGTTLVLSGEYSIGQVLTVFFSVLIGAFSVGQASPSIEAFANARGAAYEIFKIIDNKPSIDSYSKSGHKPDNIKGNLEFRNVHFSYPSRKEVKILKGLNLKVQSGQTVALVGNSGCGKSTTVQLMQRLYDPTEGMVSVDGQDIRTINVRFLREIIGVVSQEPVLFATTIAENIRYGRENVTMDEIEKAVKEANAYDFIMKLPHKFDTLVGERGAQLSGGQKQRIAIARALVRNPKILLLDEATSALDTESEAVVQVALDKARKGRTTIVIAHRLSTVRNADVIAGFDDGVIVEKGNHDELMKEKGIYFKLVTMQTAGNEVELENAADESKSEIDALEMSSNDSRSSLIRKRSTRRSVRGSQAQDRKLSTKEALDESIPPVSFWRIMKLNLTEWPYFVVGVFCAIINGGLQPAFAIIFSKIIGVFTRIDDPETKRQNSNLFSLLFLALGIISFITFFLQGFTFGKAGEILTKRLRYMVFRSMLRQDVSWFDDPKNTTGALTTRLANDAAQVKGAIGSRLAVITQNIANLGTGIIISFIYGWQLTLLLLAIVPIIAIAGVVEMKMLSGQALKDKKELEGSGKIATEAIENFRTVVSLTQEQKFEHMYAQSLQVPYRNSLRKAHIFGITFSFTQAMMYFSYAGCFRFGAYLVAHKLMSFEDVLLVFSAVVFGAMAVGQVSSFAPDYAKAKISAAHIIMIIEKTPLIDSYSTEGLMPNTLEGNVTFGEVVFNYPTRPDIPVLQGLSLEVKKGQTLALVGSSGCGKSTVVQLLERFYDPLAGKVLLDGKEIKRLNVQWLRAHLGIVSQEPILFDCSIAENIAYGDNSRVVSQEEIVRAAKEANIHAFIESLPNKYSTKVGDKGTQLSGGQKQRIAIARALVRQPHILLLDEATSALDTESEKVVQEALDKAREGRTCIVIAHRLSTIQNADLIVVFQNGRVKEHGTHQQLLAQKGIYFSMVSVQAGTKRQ
Chain of Tyrosine-protein phosphatase non-receptor type 5 (P54829 whole entry): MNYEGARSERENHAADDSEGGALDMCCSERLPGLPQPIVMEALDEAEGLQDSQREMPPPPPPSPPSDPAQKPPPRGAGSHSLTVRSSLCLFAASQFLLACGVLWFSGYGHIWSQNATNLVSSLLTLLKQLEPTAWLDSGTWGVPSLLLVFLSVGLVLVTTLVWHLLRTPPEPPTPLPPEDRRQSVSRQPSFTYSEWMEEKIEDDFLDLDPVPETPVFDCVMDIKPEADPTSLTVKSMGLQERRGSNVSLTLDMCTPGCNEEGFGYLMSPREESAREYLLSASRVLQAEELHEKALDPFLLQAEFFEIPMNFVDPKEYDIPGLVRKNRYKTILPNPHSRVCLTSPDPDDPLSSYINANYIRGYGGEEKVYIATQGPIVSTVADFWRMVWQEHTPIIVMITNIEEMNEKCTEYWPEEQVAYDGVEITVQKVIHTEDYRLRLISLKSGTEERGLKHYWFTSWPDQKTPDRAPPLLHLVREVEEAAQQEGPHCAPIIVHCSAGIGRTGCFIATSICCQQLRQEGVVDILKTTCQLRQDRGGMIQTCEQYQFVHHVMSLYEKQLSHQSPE
Chain of Eukaryotic translation initiation factor 4E (P63073 whole entry, the tested form may be a part): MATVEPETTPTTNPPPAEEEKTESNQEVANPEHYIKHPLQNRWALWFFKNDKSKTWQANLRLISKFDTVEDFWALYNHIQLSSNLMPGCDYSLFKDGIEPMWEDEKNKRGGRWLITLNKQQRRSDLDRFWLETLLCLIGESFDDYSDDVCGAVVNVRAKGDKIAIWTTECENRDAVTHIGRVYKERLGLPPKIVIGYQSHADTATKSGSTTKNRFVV
Chain of Paired box protein Pax-8 (Q06710 whole entry): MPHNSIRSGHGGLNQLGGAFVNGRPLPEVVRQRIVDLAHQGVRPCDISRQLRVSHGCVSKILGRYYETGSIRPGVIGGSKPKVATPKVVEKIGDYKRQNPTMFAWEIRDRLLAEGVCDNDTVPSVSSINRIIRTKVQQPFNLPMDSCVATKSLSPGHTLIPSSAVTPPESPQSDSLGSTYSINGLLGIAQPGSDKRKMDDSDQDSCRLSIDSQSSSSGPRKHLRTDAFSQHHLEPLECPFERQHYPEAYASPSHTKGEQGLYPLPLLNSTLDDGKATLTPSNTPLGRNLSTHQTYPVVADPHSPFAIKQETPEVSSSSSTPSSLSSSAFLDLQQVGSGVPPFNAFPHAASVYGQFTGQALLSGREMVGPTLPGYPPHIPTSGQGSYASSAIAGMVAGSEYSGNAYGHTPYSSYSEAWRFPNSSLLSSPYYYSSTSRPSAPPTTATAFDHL

Q: With CCOc1ccccc1NC(=O)c1nc(S(=O)(=O)Cc2ccccc2)ncc1Cl as the compound, how does the IC50 (Fatty acid synthase [1]) read?
A: 7.5 µM (active)

Q: What about the EC50 (Streptokinase A) of the same compound?
A: 1.98 µM (active)

Q: What about the AC50 [2] of the same compound?
A: 6.36 µM (active)

Q: And the EC50 (Streptococcus)?
A: 13.7 µM (active)

Q: What about the IC50 (Fatty acid synthase [3]) of the same compound?
A: 7.85 µM (active)

Q: And the AC50 (Paired box protein Pax-8)?
A: 7.1 µM (active)

Q: What about the AC50 [4] of the same compound?
A: 0.376 µM (active)

Q: What about the AC50 [5] of the same compound?
A: 16.9 µM (active)

Q: And the AC50 [6]?
A: 21.7 µM (active)

Q: And the EC50 [7]?
A: 12.5 µM (active)

Q: For COc1ccc(OC)c2nc3c(C(=O)NCCN(C)C)cccc3nc12, which AC50 [8] is on record?
A: 0.59 µM (active)

Q: What about the EC50 [9] of the same compound?
A: 10.2 µM (inactive)

Q: And the EC50 (HEK293 [10])?
A: > 59.7 µM (inactive)

Q: What about the EC50 [11] of the same compound?
A: 46.5 µM (inactive)

Q: What about the EC50 (HEK293 [12]) of the same compound?
A: > 6.63 µM (active)

Q: And the EC50 [13]?
A: > 91.1 µM (inactive)

Q: With Cc1cccc(N=C(S)NN(Cc2ccccc2)c2ccccc2)c1C as the compound, how does the AC50 (HeLa) read?
A: > 52 µM (inactive)

Q: What does the source list for COc1ccccc1-c1cc2nc(-c3ccccc3)cc(N3CCN(C(=O)c4ccoc4)CC3)n2n1?
A: EC50 [14]: 0.34 µM (active); EC50 [15]: 2.7 µM (active); IC50 (H9c2): > 79 µM (inactive)

Q: Which IC50 [16] does the source give for O=C(O)c1ccc2c(c1)C(=O)N(c1cccc(-c3nc4ccccc4s3)c1)C2=O here?
A: 6.24 µM (active)

Q: What about the IC50 [17] of the same compound?
A: 50 µM (inactive)

Q: And the IC50 [18]?
A: 7.07 µM (active)

Q: And the IC50 [19]?
A: 35.6 µM (inactive)

Q: What about the IC50 [20] of the same compound?
A: 6.02 µM (active)

Q: And the IC50 [21]?
A: 8.03 µM (active)

Q: Which results are given for C[C@H](CO)N1C[C@H](C)[C@H](CN(C)C(=O)Nc2cccc3ccccc23)OCCCC[C@H](C)Oc2ccc(NC(=O)CCC(F)(F)F)cc2C1=O?
A: AC50 [22]: 2.95 µM (active); AC50 [23]: 4.02 µM (active); AC50 [24]: 35 µM (active)
